These results are taken from patent US9617267B2, “Compounds and methods for kinase modulation, and indications therefor” (Plexxikon Inc., priority 2009, dated 2017).

For one data set, the target named is CYP1A2 (Homo sapiens (Human), UniProt P05177). The data set is described as follows: CYP enzyme inhibition, fluorescent substrate (CEC). In outline:
(§1)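 IC50 derived from loss of fluorescent metabolite across a 10-point 1:1 dilution series. CYP2D6: 1.5 pmol enzyme, 1.5 μM AMMC, 30 min at 37 °C, 409/530 nm; CYP1A2: 0.5 pmol, 5 μM CEC, 15 min, 409/460 nm. Compounds pre-incubated 10 min in NADPH-regenerating mix.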

The target of the next data set is CYP2C9 (Homo sapiens (Human), UniProt P11712). The experiment in a line: CYP enzyme inhibition, fluorescent substrate (MFC). In outline:
(§2)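 10-pt 1:1 serial dilution in co-factor mix (DMSO stock 100 mM); 10 min preincubation, 37 °C; reaction at 37 °C. Readout: fluorescent metabolite of probe substrate. IC50 from signal vs [compound].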

The next data set deals with B-Raf V600E (Homo sapiens (Human), UniProt P15056, V600E). The data set is described as follows: B-Raf V600E kinase activity biochemical assay (AlphaScreen, biotin-MEK1 phosphorylation). The settings on record: for IC50: B-Raf V600E; for Biochemical activity ratio V600E/C: ratio of IC50 B-Raf V600E / c-Raf-1. In outline:
(§3)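 Compounds from a 0.1 mM DMSO stock were tested at 8 serially diluted points. Kinase reactions with 100 μM ATP (final) ran 45 min at room temperature, then were stopped with EDTA buffer containing anti-phospho-MEK1/2 antibody plus streptavidin donor and protein A acceptor beads.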
A general note: In Alpha technology, singlet oxygen from a donor bead excites a nearby acceptor bead.

Another data set concerns the target CYP3A4(BQ) (Homo sapiens (Human), UniProt P08684). The data set is described as follows: CYP enzyme inhibition, fluorescent substrate BQ. In outline:
as §2

Another data set concerns the target CYP2D6 (Homo sapiens (Human), UniProt P10635). The data set is described as follows: CYP enzyme inhibition, fluorescent substrate (AMMC). The conditions noted are these: read-out: Cyp IC50 2D6. The class given is in vitro ADME. In outline: as §1
A further data set addresses CYP3A4(BFC) (Homo sapiens (Human), UniProt P08684). The experiment in a line: CYP enzyme inhibition, fluorescent substrate BFC. In outline:
as §2

In the next data set the target is CYP2C19 (Homo sapiens (Human), UniProt P33261). The experiment in a line: CYP enzyme inhibition, fluorescent substrate (CEC). In outline:
as §2

In a further data set the target is c-Raf-1 (Homo sapiens, UniProt P04049). The experiment in a line: c-Raf-1 kinase activity biochemical assay (AlphaScreen, biotin-MEK1 phosphorylation). In outline:
as §3

Data set [1] in a line: Relative solubility by turbidity threshold concentration in aqueous buffers (pH 1.5, 4.5, 6.8, 7.4). The class given is physicochemical. The settings on record: for turbidity threshold (L, M, H) 1.4: pH 1.4 [sic] (method: SGF pH 1.5); for turbidity threshold (L, M, H) 4.5: pH 4.5 (SIF); for turbidity threshold (L, M, H) 6.8: pH 6.8 (SIF); for turbidity threshold (L, M, H) 7.4: pH 7.4 (HEPES). In outline:
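Solubility class (high >250 μM, moderate 31.3–250 μM, low <31.3 μM) comes from the concentration where absorbance reaches a 0.01 threshold, averaged across 490/535/650 nm. Samples were compound dilutions from DMSO stock, 1 μL into 99 μL buffer at pH 1.5, 4.5, 6.8 or 7.4.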

In data set [2] the target is B-Raf (Homo sapiens (Human), UniProt P15056). The data set is described as follows: B-Raf kinase activity biochemical assay (AlphaScreen, biotin-MEK1 phosphorylation). The settings on record: B-Raf. In outline: as §3
B-Raf (Homo sapiens (Human), UniProt P15056), sequence (P15056 whole entry): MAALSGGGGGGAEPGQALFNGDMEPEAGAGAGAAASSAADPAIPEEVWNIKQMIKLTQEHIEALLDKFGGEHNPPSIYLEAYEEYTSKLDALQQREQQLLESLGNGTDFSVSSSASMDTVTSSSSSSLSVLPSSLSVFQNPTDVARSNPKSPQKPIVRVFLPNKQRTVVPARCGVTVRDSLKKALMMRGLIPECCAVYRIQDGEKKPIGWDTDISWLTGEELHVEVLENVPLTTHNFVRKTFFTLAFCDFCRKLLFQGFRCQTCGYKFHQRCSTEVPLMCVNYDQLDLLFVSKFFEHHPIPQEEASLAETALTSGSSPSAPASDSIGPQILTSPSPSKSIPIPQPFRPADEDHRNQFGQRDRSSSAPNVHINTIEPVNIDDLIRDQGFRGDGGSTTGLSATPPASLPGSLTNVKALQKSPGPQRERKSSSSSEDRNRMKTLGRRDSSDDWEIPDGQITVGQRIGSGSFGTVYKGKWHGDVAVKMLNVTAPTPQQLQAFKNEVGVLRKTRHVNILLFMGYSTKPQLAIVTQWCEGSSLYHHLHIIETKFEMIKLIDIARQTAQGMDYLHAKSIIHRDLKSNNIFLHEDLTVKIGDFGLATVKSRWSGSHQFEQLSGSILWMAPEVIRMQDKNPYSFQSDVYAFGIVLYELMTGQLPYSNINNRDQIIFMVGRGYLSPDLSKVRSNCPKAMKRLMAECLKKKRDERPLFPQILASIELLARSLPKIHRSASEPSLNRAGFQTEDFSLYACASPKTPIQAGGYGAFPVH
Data set [3] has as its system B-Raf. The description is as above. The settings on record: for Biochemical activity ratio B/V600E: ratio of IC50 B-Raf / B-Raf V600E; for Biochemical activity ratio B/C: ratio of IC50 B-Raf / c-Raf-1. In outline: as §3
Where [4] appears, read: read-out: Cyp IC50 2C9, CYP2C9, substrate MFC.
Where [5] appears, read: read-out: Cyp IC50 3A4(BQ), CYP3A4, substrate BQ.
Where [6] appears, read: read-out: Cyp IC50 3A4(BFC), CYP3A4, substrate BFC.

By IC50 is commonly meant the concentration that inhibits the measured activity by half.

Structures are written as SMILES. Where two headings read alike, the source gives them in different places.

B-Raf V600E, sequence (P15056 whole entry V600E): as the sequence (P15056 whole entry) above, with V600E counted along it
CYP1A2, sequence (P05177 whole entry): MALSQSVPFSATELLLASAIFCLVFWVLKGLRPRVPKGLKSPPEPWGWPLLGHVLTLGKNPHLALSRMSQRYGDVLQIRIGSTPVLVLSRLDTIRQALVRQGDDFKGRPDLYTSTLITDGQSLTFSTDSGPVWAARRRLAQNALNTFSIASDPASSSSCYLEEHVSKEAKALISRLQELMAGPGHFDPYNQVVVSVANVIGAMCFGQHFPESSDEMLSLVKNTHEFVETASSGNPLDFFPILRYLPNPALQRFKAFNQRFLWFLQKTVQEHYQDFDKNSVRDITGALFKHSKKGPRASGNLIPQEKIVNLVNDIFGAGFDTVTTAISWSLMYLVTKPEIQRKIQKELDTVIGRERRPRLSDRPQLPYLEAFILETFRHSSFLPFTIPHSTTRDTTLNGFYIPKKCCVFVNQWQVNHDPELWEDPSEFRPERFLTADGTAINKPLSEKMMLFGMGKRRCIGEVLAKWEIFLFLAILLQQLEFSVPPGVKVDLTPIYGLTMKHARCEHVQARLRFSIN
CYP3A4(BQ), sequence (P08684 whole entry): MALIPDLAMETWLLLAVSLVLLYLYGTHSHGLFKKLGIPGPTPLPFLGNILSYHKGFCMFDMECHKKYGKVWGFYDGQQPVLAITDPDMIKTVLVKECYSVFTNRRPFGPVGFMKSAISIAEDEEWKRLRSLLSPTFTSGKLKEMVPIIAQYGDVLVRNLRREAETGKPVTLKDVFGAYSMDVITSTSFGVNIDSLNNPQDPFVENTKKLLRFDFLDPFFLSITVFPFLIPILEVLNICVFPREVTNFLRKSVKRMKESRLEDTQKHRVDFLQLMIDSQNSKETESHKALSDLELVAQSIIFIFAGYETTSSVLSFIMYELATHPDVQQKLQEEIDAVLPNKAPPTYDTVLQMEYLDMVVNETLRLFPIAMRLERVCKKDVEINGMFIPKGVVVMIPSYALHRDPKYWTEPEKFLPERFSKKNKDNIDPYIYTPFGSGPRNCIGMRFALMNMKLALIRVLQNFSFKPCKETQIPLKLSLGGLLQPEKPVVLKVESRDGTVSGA
CYP3A4(BFC), sequence (P08684 whole entry): as above
CYP2C9, sequence (P11712 whole entry): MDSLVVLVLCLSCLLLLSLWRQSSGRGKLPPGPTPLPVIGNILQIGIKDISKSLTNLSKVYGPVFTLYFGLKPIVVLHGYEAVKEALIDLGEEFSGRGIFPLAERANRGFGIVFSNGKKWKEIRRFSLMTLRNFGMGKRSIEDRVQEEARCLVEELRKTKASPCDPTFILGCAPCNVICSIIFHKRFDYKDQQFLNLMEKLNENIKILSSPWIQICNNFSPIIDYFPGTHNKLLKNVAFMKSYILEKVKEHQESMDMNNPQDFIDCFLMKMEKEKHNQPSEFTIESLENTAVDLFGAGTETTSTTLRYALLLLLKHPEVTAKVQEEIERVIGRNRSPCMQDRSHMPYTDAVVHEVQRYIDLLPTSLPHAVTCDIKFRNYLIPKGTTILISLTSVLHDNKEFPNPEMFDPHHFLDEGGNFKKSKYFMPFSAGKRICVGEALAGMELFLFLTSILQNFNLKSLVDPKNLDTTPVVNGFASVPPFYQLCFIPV
CYP2D6, sequence (P10635 whole entry): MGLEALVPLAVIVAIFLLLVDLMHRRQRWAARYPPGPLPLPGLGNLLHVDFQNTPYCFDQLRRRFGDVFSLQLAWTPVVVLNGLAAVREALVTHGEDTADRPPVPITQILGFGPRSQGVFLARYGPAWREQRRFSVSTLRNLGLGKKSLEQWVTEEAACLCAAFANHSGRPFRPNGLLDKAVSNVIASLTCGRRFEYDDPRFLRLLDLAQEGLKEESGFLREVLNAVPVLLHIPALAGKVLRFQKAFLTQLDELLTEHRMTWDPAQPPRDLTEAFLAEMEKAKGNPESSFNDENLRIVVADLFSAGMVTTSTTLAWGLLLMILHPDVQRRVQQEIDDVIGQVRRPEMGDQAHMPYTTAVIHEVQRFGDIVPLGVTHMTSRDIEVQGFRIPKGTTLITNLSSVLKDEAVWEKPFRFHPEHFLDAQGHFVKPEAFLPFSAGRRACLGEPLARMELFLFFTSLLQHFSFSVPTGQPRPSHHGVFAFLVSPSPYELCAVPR
c-Raf-1, sequence (P04049 whole entry, looked up): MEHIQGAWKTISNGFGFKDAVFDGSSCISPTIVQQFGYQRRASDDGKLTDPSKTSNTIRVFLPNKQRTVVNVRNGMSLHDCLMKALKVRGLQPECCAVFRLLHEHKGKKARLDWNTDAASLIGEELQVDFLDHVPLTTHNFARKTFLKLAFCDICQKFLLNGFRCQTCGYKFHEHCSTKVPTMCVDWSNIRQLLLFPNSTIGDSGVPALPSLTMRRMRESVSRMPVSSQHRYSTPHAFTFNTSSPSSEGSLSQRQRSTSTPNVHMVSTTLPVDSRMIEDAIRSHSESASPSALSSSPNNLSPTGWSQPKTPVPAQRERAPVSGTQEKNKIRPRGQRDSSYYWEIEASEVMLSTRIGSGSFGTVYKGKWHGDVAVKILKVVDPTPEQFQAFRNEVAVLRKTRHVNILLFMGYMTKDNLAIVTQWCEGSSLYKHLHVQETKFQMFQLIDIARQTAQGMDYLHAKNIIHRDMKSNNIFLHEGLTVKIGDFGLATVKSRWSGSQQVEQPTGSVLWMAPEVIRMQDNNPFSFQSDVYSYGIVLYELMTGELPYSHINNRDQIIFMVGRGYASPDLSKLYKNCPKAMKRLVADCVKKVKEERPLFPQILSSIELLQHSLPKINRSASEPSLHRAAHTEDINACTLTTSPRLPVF
CYP2C19, sequence (P33261 whole entry): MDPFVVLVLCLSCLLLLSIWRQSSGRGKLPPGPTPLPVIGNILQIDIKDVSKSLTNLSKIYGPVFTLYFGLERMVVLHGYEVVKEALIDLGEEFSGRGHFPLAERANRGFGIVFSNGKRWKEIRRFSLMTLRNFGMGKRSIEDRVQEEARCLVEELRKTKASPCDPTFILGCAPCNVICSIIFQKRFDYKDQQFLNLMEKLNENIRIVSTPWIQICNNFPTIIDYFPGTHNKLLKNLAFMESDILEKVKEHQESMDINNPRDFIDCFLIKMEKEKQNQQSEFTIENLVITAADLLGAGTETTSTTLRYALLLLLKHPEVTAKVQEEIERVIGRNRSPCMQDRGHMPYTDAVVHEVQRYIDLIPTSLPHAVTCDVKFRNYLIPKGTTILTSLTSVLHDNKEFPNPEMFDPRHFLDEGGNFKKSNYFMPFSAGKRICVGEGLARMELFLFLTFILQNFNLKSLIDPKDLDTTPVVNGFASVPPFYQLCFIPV

On to `CCCS(=O)(=O)Nc1ccc(F)c(C(=O)c2c[nH]c3ncc(C)c(Cl)c23)c1F` [P-2001, Propane-1-sulfonic acid [3-(4-chloro-5-methyl-1H-pyrrolo[2,3-b]pyridine-3-carbonyl)-2,4-difluoro-phenyl]-amide], for which the IC50 is > 10 µM against CYP1A2; > 10 µM on CYP2C9; < 0.1 µM against B-Raf V600E; > 10 µM on CYP3A4(BQ); > 10 µM at CYP2D6; > 10 µM at CYP3A4(BFC). The figures for the IC50 against CYP2C19, at c-Raf-1 and at B-Raf [2] were 5 to 10 µM, < 0.1 µM and < 0.1 µM, respectively. Also, the “Biochemical activity ratio V600E/C” value on B-Raf V600E is 0.1-10. In addition, the “turbidity threshold (L, M, H) 1.4” value in data set [1] is “M (moderate solubility if the threshold concentration is 31.3 μM to 250 μM)”. The “turbidity threshold (L, M, H) 4.5” value in data set [1] is listed as “M (moderate solubility if the threshold concentration is 31.3 μM to 250 μM)”. The “turbidity threshold (L, M, H) 6.8” value in [1] is reported as “M (moderate solubility if the threshold concentration is 31.3 μM to 250 μM)”. In addition, in data set [1], the “turbidity threshold (L, M, H) 7.4” value is on record as “M (moderate solubility if the threshold concentration is 31.3 μM to 250 μM)”. Also, the “Biochemical activity ratio B/V600E” value in the data set with B-Raf [3] was 0.1-10. In addition, in the data set with B-Raf [3], the “Biochemical activity ratio B/C” value is 0.1-10.

For the compound `CN(C)CCNc1ncnc2[nH]cc(C(=O)c3c(F)ccc(NS(=O)(=O)c4ccc(C(F)(F)F)cc4)c3F)c12` [P-1059, N-{3-[4-(2-Dimethylamino-ethylamino)-7H-pyrrolo[2,3-d]pyrimidine-5-carbonyl]-2,4-difluoro-phenyl}-4-trifluoromethyl-benzenesulfonamide], the IC50 was > 10 µM against CYP1A2 (human, 15 min); > 10 µM on CYP2C9 (setting [4]); > 0.1 µM against B-Raf V600E; > 10 µM at CYP3A4(BQ) (setting [5]); > 10 µM at CYP2D6; > 10 µM on CYP3A4(BFC) (setting [6]). Also, the IC50 is > 10 µM on CYP2C19 (read-out: Cyp IC50 2C19, CYP2C19, substrate CEC); < 0.1 µM on c-Raf-1; > 0.1 µM against B-Raf [2]. At B-Raf V600E, the “Biochemical activity ratio V600E/C” value is on record as >10. For the same compound, the “turbidity threshold (L, M, H) 1.4” value in data set [1] was “H (high solubility if the threshold concentration is >250 μm)”. Also, the “turbidity threshold (L, M, H) 4.5” value in data set [1] is listed as “M (moderate solubility if the threshold concentration is 31.3 μM to 250 μM)”. Besides, in [1], the “turbidity threshold (L, M, H) 6.8” value is “M (moderate solubility if the threshold concentration is 31.3 μM to 250 μM)”. For the same compound, the “turbidity threshold (L, M, H) 7.4” value in data set [1] is “M (moderate solubility if the threshold concentration is 31.3 μM to 250 μM)”. The “Biochemical activity ratio B/V600E” value with B-Raf [3] is reported as 0.1-10. Further, the “Biochemical activity ratio B/C” value in the data set on B-Raf [3] is reported as 0.1-10.

As for `Cc1ncnc2[nH]cc(C(=O)c3c(F)ccc(NS(=O)(=O)c4ccc(C(C)C)cc4)c3F)c12` [P-1009, N-[2,4-Difluoro-3-(4-methyl-7H-pyrrolo[2,3-d]pyrimidine-5-carbonyl)-phenyl]-4-isopropyl-benzenesulfonamide], the IC50 on CYP1A2 (human, 15 min) is > 10 µM; on CYP2C9 (setting [4]), < 5 µM; on B-Raf V600E it was > 0.1 µM; at CYP3A4(BQ) (setting [5]), > 10 µM; on CYP2D6, > 10 µM; on CYP3A4(BFC) (setting [6]) it was < 5 µM. For the same compound, the IC50 against CYP2C19 is 5 to 10 µM; against c-Raf-1, < 0.1 µM; against B-Raf [2] it was > 0.1 µM. In addition, the “Biochemical activity ratio V600E/C” value at B-Raf V600E was >10. The “turbidity threshold (L, M, H) 1.4” value in data set [1] was “H (high solubility if the threshold concentration is >250 μm)”. Besides, the “turbidity threshold (L, M, H) 4.5” value in data set [1] is listed as “L (low solubility if the threshold concentration is <31.3 μM)”. Further, the “turbidity threshold (L, M, H) 6.8” value in data set [1] is reported as “L (low solubility if the threshold concentration is <31.3 μM)”. Also, the “turbidity threshold (L, M, H) 7.4” value in [1] is “M (moderate solubility if the threshold concentration is 31.3 μM to 250 μM)”. Moreover, in the data set on B-Raf [3], the “Biochemical activity ratio B/V600E” value was 0.1-10. Moreover, in the data set on B-Raf [3], the “Biochemical activity ratio B/C” value is recorded as >10.
